Laboratory results as given in patent publication EP0273272B1, “Pharmaceutical compositions containing 17-benzyl sparteine derivatives with a positive inotropic effect” (Kali-Chemie Pharma GmbH, priority 1986, dated 1988).

Assays:
Mäusen = assay: Determination of the minimal toxic dose in mice; assay type: in vivo
Description: Männlichen Mäusen von 20-25 g Gewicht werden p.o. Maximaldosen von 300 mg/kg der Testsubstanz verabreicht. Die Tiere werden 3 Stunden lang sorgfältig auf Toxizitätssymptome beobachtet. über einen Zeitraum von 24 Stunden nach der Applikation werden zusätzlich alle Symptome und Todesfälle registriert. Begleitsymptome werden ebenfalls beobachtet und registriert. Wenn Tod oder starke toxische Symptome beobachtet werden, werden weiteren Mäusen zunehmend geringere Dosen verabreicht, bis keine toxischen Symptome mehr auftreten. Die niedrigste Dosis, welche Tod oder starke toxische Symptome hervorruft, wird als minimale toxische Dosis in der nachfolgenden Tabelle 2 angegeben. Tabelle 2

linken Herzvorhofes = assay: Functional refractory period of the isolated left atrium, paired electrical stimulation (antiarrhythmic effect); parameters: species or system Meerschweinchen; conditions: 0.3 h, concentration prolonging the functional refractory period to 125 % 18 min after application, guinea pig, read-out: Effektive Konzentration zur Erreichung von FRP 125 %
Text: Der Nachweis der antiarrhythmischen Wirkung der Wirksubstanzen erfolgte experimentell durch Bestimmung der funktionellen Refraktärzeit des linken Herzvorhofes von weiblichen Albino Pirbright-white Meerschweinchen der Gewichtsklasse 300 bis 400 g mit Hilfe der gepaarten elektrischen Stimulation in Anlehnung an die Methode von Govier (W.C. Govier, J. Pharmacol. Exp. Ther. 148 (1) (1965), 100 bis 105). In der nachfolgenden Tabelle 3 ist als FRP 125 % diejenige Konzentration in µmol/l angegeben, bei der es 18 min nach Substanzapplikation zu einer Verlängerung der funktionellen Refraktärzeit auf 125 % kommt.

[1] = system: spontan schlagenden, isolierten rechten Vorhöfen; assay: Heart rate of spontaneously beating isolated right atria; parameters: species or system Meerschweinchen; conditions: 20 min, concentration lowering the rate to 75 % of the initial value 20 min after application, guinea pig, read-out: Effektive Konzentration zur Erreichung von FRQ 75 %
Description: Der direkte Einfluß der Wirksubstanz auf die Herzfrequenz (FRQ) wurde an spontan schlagenden, isolierten rechten Vorhöfen von weiblichen Albino Pirbright-white Meerschweinchen der Gewichtsklasse von 300 bis 400 g geprüft. In Tabelle 3 ist als FRQ 75 % diejenige Konzentration in µmol/l angegeben, bei der es 20 min nach der Substanzgabe zu einer Abnahme der Frequenz auf 75 % des Ausgangwertes kommt. Tabelle 3

narkotisierten Ratten = assay: Myocardial oxygen consumption (double product, method of Neill) in anaesthetised rats; assay type: in vivo; conditions: used as dihydrochloride; for DP: double product (systolic pressure x heart rate); for FRQ: heart rate; for P₅: systolic blood pressure
Text: Die Wirkung der Substanzen auf Blutdruck und Herzfrequenz bei i.v.-Dauerinfusion in narkotisierten Ratten wird nach der Methode von Buschmann et al. (J. Cardiovascular Pharmacol. 2 777-781 (1980)) bestimmt.
Männliche Wistar-Ratten (330-370 g Körpergewicht) werden durch i.p.-Applikation von 1,25 g/kg Urethan narkotisiert und tracheotomiert. Nach einer Äquilibrierungsphase von 10 Minuten wird mit den Messungen begonnen. In einer Vorlaufphase von 5 Minuten werden die Ausgangswerte gemessen. Anschließend werden die Prüfsubstanzen gelöst in isotonischer Natriumschloridlösung (gegebenenfalls mit Zusatz eines Lösungsvermittlers) als Dauerinfusion i.v. appliziert, beginnend mit einer Dosis vom 0,01 µmol/kg/min. Die Dosis wird alle 10 Minuten ohne Erhöhung des Infusionsvolumens auf das 10-fache gesteigert. Eine Kontrollgruppe erhält nur wirkstofffreie Lösung appliziert.
In dem gleichen Versuchsmodell wurde auch der Einfluß der Wirksubstanzen auf den myokardialen Sauerstoffverbrauch an narkotisierten Ratten untersucht und anhand der Methode von Neill (Neill, W.Z., H.H. Levine, R.J. Wagman, R. Gorlin, Circulation Research 12 (1963), 163) berechnet. Dazu wird das Produkt aus systolischem Blutdruck und Herzfrequenz (= Doppelprodukt mm Hg x min⁻¹ x 0,01) berechnet. Wie aus der nachstehenden Tabelle 1A ersichtlich ist, reduzieren die Wirksubstanzen dieses Doppelprodukt und führen damit zu einer Sauerstoffeinsparung am Herzen. Tabelle 1A

[2] = mouse, in vivo, po, 300 mg/kg, 1440 min
[3] = anaesthetised rats, 6,6 µmol/kg i.v.
[4] = anaesthetised rats, 2,6 µmol/kg i.v.

Structure (SMILES)	Minimale toxische Dosis (Mäusen; [2])	EC (FRP 125%) (linken Herzvorhofes)	EC (FRQ 75%) [1]	other results
COc1cccc(CC2C3CC(CN4CCCCC34)C3CCCCN32)c1OC (centres unmarked) [Beispiel 6, 17-(2,3-Dimethoxybenzyl)-spartein]	>300 mg/kg	3.39 µM	4.85 µM	–
c1ccc(CC2C3CC(CN4CCCCC34)C3CCCCN32)cc1 (centres unmarked) [Beispiel 500, 17-Benzylspartein]	–	3.52 µM	1.46 µM	Minimale toxische Dosis (Mäusen; p.o., male mice, maximal dose 300 mg/kg, observed 24 h, lowest dose causing death or strong toxic symptoms): >300 mg/kg
COc1ccccc1CC1C2CC(CN3CCCCC23)C2CCCCN21 (centres unmarked) [Beispiel 501]	300 mg/kg	3.71 µM	4.69 µM	–
COc1cccc(CC2C3CC(CN4CCCCC34)C3CCCCN32)c1 (centres unmarked) [Beispiel 502, 17-(3-Methoxybenzyl)-spartein]	300 mg/kg	6.24 µM	2.06 µM	Änderung DP (narkotisierten Ratten; change of double product versus pre-dose values, 6,6 µmol/kg i.v.): -29 Prozent; DP (narkotisierten Ratten; [3]): 312 mm Hg/ min x 100; FRQ (narkotisierten Ratten; [3]): 254 min⁻¹; P₅ (narkotisierten Ratten; [3]): 124 mm Hg
Clc1ccccc1CC1C2CC(CN3CCCCC23)C2CCCCN21 (centres unmarked) [Beispiel 505]	300 mg/kg	2.17 µM	0.99 µM	Änderung DP (narkotisierten Ratten; change of double product versus pre-dose values, 2,6 µmol/kg i.v.): -26 Prozent; DP (narkotisierten Ratten; [4]): 376 mm Hg/ min x 100; FRQ (narkotisierten Ratten; [4]): 306 min⁻¹; P₅ (narkotisierten Ratten; [4]): 121 mm Hg
Fc1ccccc1CC1C2CC(CN3CCCCC23)C2CCCCN21 (centres unmarked) [Beispiel 509]	>300 mg/kg	2.83 µM	4.09 µM	–
Fc1ccc(CC2C3CC(CN4CCCCC34)C3CCCCN32)cc1 (centres unmarked) [Beispiel 511]	>300 mg/kg	2.47 µM	5.12 µM	–
Cc1cccc(CC2C3CC(CN4CCCCC34)C3CCCCN32)c1 (centres unmarked) [Beispiel 518]	>300 mg/kg	2.58 µM	3.13 µM	–
Cc1ccc(CC2C3CC(CN4CCCCC34)C3CCCCN32)cc1 (centres unmarked) [Beispiel 519]	300 mg/kg	3.24 µM	1.9 µM	–
Cc1cccc(CC2C3CC(CN4CCCCC34)C3CCCCN32)c1F (centres unmarked) [Beispiel 523]	300 mg/kg	2.69 µM	0.95 µM	–
